Laboratory results: patent US20240002397A1, “3-AMINO PYRROLIDINE AND PIPERIDINE MACROCYCLIC OREXIN RECEPTOR AGONISTS” (Merck Sharp & Dohme LLC, priority 2020, published 2024)

Biological target: T1, human OX2R (Homo sapiens, UniProt O43614)
T1 sequence (O43614 1-444): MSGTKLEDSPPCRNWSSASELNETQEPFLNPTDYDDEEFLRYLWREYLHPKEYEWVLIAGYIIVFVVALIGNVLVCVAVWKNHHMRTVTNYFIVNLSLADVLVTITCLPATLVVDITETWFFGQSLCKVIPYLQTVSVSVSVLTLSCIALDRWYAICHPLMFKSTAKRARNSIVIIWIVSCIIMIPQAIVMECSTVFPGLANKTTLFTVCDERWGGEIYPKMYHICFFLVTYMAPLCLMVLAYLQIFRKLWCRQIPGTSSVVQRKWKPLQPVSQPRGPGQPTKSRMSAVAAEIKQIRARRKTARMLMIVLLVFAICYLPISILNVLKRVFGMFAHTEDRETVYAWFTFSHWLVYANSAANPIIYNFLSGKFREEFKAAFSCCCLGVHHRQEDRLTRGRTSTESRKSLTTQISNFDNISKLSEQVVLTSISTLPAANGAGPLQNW
Test: IPOne (IP-1) orexin receptor agonist assay in CHO cells expressing human OX2R
Settings: CHO, hOX2R IP-One; percentage of mean max effect of a reference compound at 1 uM with 100% activity
Method: In atypical experiment, the OX1 and OX2 receptor agonist activity is determined in accordance with the following general experimental method. Chinese hamster ovary (CHO) cells expressing human OX1R and/or the human OX2R were grown in Iscove's modified DMEM containing glutaMAX™, 1% G418, 100 U/mL penicillin, 100 μg/mL streptomycin and 10% heat-inactivated qualified fetal bovine serum (FBS). […] During this incubation, IP-one detection reagents were prepared (38:1:1 lysis buffer:D2:AB-cryptate reagents).
For each compound, data were fit to a four parameter logistic fit (ActivityBase software) and the EC50 was reported as the inflection point of the resulting curve.

Going from `CCOc1cc2nc(c1)C1CCC(CC1)OCC1[C@@H](NS(C)(=O)=O)C[C@@H](C)N1C(=O)OCCCO2` (stereo partly drawn) [Example 78, N-((2^1S,2^4S,5^2R,5^3S,5^5R)-1^4-ethoxy-5^5-methyl-6-oxo-3,7,11-trioxa-1(2,6)-pyridina-5(2,1)-pyrrolidina-2(1,4)-cyclohexanacycloundecaphane-5^3-yl)methanesulfonamide] to `Cc1cc2nc(c1)C1CCC(CC1)OCC1[C@@H](NS(C)(=O)=O)C[C@@H](C)N1C(=O)OCCCO2` (stereo partly drawn) [Example 67, N-((2^1S,2^4S,5^2R,5^3S,5^5R)-1^4,5^5-dimethyl-6-oxo-3,7,11-trioxa-1(2,6)-pyridina-5(2,1)-pyrrolidina-2(1,4)-cyclohexanacycloundecaphane-5^3-yl)methanesulfonamide], the Emax falls from 100% to 98.5%.

`CN(C)S(=O)(=O)N[C@H]1CCCN2C(=O)OCCCOc3cccc(c3)C3CCC(CC3)OC[C@@H]12` [Example 25, N′-((2^1S,2^4S,5^2R,5^3S)-6-oxo-3,7,11-trioxa-5(2,1)-piperidina-1(1,3)-benzena-2(1,4)-cyclohexanacycloundecaphane-5^3-yl)-N,N-dimethyl-sulfamide] and `C[C@@H]1C[C@H](NS(=O)(=O)N(C)C)[C@@H]2COC3CCC(CC3)c3cccc(c3)OCCCCOC(=O)N12` [Example 11, N′-((2^1S,2^4S,5^2R,5^3S,5^5R)-5^5-methyl-6-oxo-3,7,12-trioxa-5(2,1)-pyrrolidina-1(1,3)-benzena-2(1,4)-cyclohexanacyclododecaphane-5^3-yl)-N,N-dimethyl-sulfamide] are the same in Emax: 101% for the first, 101% for the second.

Going from `C[C@@H]1C[C@H](NS(C)(=O)=O)[C@@H]2COC3CCC(CC3)c3ccc(F)c(n3)CCCCOC(=O)N12` [Example 110, N-((2^1S,2^4S,5^2R,5^3S,5^5R)-1^5-fluoro-5^5-methyl-6-oxo-3,7-dioxa-1(2,6)-pyridina-5(2,1)-pyrrolidina-2(1,4)-cyclohexanacycloundecaphane-5^3-yl)methanesulfonamide] to `COc1cc2nc(c1)C1CCC(CC1)OC[C@H]1[C@@H](NS(C)(=O)=O)C[C@@H](C)N1C(=O)OCCCC2` [Example 111, N-((2^1S,2^4S,5^2R,5^3S,5^5R)-1^4-methoxy-5^5-methyl-6-oxo-3,7-dioxa-1(2,6)-pyridina-5(2,1)-pyrrolidina-2(1,4)-cyclohexanacycloundecaphane-5^3-yl)methanesulfonamide], the Emax falls from 102% to 99.6%.

Compared with `C[C@@H]1C[C@H](NS(=O)(=O)N(C)C)[C@@H]2COC3CCC(CC3)c3ccccc3CCOC(=O)N12` [Example 4, N′-((2′R,2^4R,5^2R,5^3S,5^5R)-5^5-methyl-6-oxo-3,7-dioxa-5(2,1)-pyrrolidina-1(1,2)-benzena-2(1,4)-cyclohexanacyclononaphane-5^3-yl)-N,N-dimethyl-sulfamide], `C[C@@H]1C[C@H](NS(C)(=O)=O)[C@@H]2COC3CCC(CC3)c3ccccc3/C=C/OC(=O)N12` [Example 2, N-((2^1R,2^4R,5^2R,5^3S,5^5R,E)-5^5-methyl-6-oxo-3,7-dioxa-5(2,1)-pyrrolidina-1(1,2)-benzena-2(1,4)-cyclohexanacyclonaphan-8-en-5^3-yl)methanesulfonamide] is higher in Emax: 101% for the first, 102% for the second.

First: C[C@@H]1C[C@H](NS(C)(=O)=O)[C@@H]2CO[C@H]3CC[C@H](CC3)c3cc(C(F)(F)F)cc(n3)OCCCOC(=O)N12 [Example 51, N-((2^1S,2^4S,5^2R,5^3S,5^5R)-5^5-methyl-6-oxo-14-(trifluoromethyl)-3,7,11-trioxa-1(2,6)-pyridina-5(2,1)-pyrrolidina-2(1,4)-cyclohexanacycloundecaphane-5^3-yl)methanesulfonamide]
Second: C[C@@H]1C[C@H](NS(C)(=O)=O)C2COC3CCC(CC3)c3cc(C(F)(F)F)cc(n3)OCCOC(=O)N21 (stereo partly drawn) [Example 54, N-((2^1S,2^4S,5^2R,5^3S,5^5R)-5^5-methyl-6-oxo-1^4-(trifluoromethyl)-3,7,10-trioxa-1(2,6)-pyridina-5(2,1)-pyrrolidina-2(1,4)-cyclohexanacyclodecaphane-5^3-yl)methanesulfonamide]
The Emax of the first is lower: 99.2% for the first, 100% for the second.

Compared with `COC[C@@H]1C[C@H](NS(C)(=O)=O)[C@@H]2COC3CCC(CC3)c3cccc(F)c3CCOC(=O)N12` [Example 6, N-((2^1R,2^4R,5^2R,5^3S, 5^5S)-1^3-fluoro-5^5-(methoxymethyl)-6-oxo-3,7-dioxa-5(2,1)-pyrrolidina-1(1,2)-benzena-2(1,4)-cyclo-hexanacyclonaphane-5^3-yl)methane sulfonamide], `COC[C@@H]1C[C@H](NS(C)(=O)=O)C2COC3CCC(CC3)c3cc(C(F)(F)F)cc(n3)OCCOC(=O)N21` (stereo partly drawn) [Example 84, N-((2^1S,2^4S,5^2R,5^3S,5^5S)-5^5-(methoxymethyl)-6-oxo-1^4-(trifluoromethyl)-3,7,10-trioxa-1(2,6)-pyridina-5(2,1)-pyrrolidina-2(1,4)-cyclohexanacyclodecaphane-5^3-yl)methanesulfonamide] is higher in Emax: 100% for the first, 101% for the second.

Compared with `C[C@@H]1C[C@H](NS(C)(=O)=O)C2COC3CCC(CC3)c3cc(F)cc(c3)OCCCOC(=O)N21` (stereo partly drawn) [Example 42, N-((2^1S,2^4S, 5^2R,5^3S,5^5R)-1^5-fluoro-5^5-methyl-6-oxo-3,7,11-trioxa-5(2,1)-pyrrolidina-1(1,3)-benzena-2(1,4)-cyclohexana-cyclounde-caphane-5^3-yl)methane-sulfonamide], `C[C@@H]1C[C@H](NS(C)(=O)=O)C2COC3CCC(CC3)c3nc(ccc3C(F)(F)F)OCCCOC(=O)N21` (stereo partly drawn) [Example 69, N-((2^1S,2^4S,5^2R,5^3S,5^5R)-5^5-methyl-6-oxo-1^3-(trifluoromethyl)-3,7,11-trioxa-1(2,6)-pyridina-5(2,1)-pyrrolidina-2(1,4)-cyclohexanacycloundecaphane-5^3-yl)methanesulfonamide] is lower in Emax: 102% for the first, 94.7% for the second.

First: C[C@@H]1C[C@H](NS(C)(=O)=O)C2COC3CCC(CC3)c3nc(ccc3C(F)(F)F)OCCOC(=O)N21 (stereo partly drawn) [Example 68, N-((2^1S,2^4S,5^2R,5^3S,5^5R)-5^5-methyl-6-oxo-1^3-(trifluoromethyl)-3,7,10-trioxa-1(2,6)-pyridina-5(2,1)-pyrrolidina-2(1,4)-cyclohexanacyclodecaphane-5^3-yl)methanesulfonamide]
Second: COc1cc2nc(c1)[C@H]1CC[C@H](CC1)OC[C@H]1[C@@H](NS(C)(=O)=O)C[C@@H](C)N1C(=O)OCCCN2 [Example 88, N-((2^1S,2^4S,5^2R,5^3S,5^5R)-1^4-methoxy-5^5-methyl-6-oxo-3,7-dioxa-11-aza-1(2,6)-pyridina-5(2,1)-pyrrolidina-2(1,4)-cyclohexanacycloundecaphane-5^3-yl)methanesulfonamide]
The Emax of the first is lower: 102% for the first, 103% for the second.

Compound `COC[C@@H]1C[C@H](NS(C)(=O)=O)C2COC3CCC(CC3)c3cc(C(F)F)cc(n3)OCCCOC(=O)N21` (stereo partly drawn) [Example 85, N-((2^1S,2^4S,5^2R,5^3S,5^5S)-14-(difluoromethyl)-5^5-(methoxymethyl)-6-oxo-3,7,11-trioxa-1(2,6)-pyridina-5(2,1)-pyrrolidina-2(1,4)-cyclohexanacycloundecaphane-5^3-yl)methanesulfonamide] has an Emax of 102%.

Same assay, conditions: hOX2R IP-One; percentage of mean max effect of a reference compound at 1 uM with 100% activity

With `CN(C)S(=O)(=O)NC1CCCN2C(=O)OCCc3ccccc3C3CCC(CC3)OCC12` (single isomer, unassigned) [Example 39, N′-((2^1S,2^4S,5^2R,5^3S)-6-oxo-3,7-dioxa-5(2,1)-piperidina-1(1,2)-benzena-2(1,4)-cyclohexanacyclononaphane-5^3-yl)-N,N-dimethyl-sulfamide] the “Emax (%)” value was 4.4%.
